Measurements as given in patent US10869931B2, “Polyethylene glycol-modified angiogenesis inhibitor HM-1 and application thereof” (NANJING ANJI BIOLOGICAL TECHNOLOGY CO.,LTD, priority 2016, dated 2020).
“And” between values parts separate entries of the source, which are not always exact repeats. Identical values can stand only once. Marks after values point to notes of the source that are not given here. Where no end group is shown, it is not given here.

Experiments:
[1] = tested on: choroidal neovascularization in BN rats; assay: Laser-induced choroidal neovascularization in BN rats (FFA); format: in vivo, rat
Method: 6-8 weeks old male BN rats were anesthetized with 846 compound anesthetic 0.5 mL/kg administered intraperitoneally. The eye drops of compound tropamide eyes were used 5 minutes before laser photocoagulation, and the pupils of both eyes were fully scattered. Fix animals, with the aid of −53.00 D contact lens, around the optic disc and along the same distance from the optic disc 2PD, the laser beam photocoagulation were performed to make a total of 8 photo-condensation spots, with laser wavelength of 647.1 nm, power of 350 mW, photocoagulation spot diameter and time were 50 μm and 0.05 s, respectively. Immediately after photocoagulation, fundus photography was performed. FFA, histopathology and transmission electron microscopy were performed at 3, 7, 14, 21, and 28 days after photocoagulation.
It was confirmed by fundus photography and FFA examination that the fluorescein leakage of photocoagulation peaked on the 21st day after photocoagulation, and histopathological examination was performed at the same time. […] A large number of neovascular vessels were seen, and red blood cells were visible in the lumen. Microscopically, capillary cells in the choroidal melanocytes were cohesively altered and endothelial cells aggregated.
Rats that were successfully modeled were randomly divided into groups of 5 rats each. They were labeled as negative control group, mPEG-SC-HM-1 treatment group, mPEG2-NHS-HM-1 treatment group, mPEG-ALD-HM-1 treatment group and mPEG-bALD-HM-1 treatment group, respectively. Saline, mPEG-HM-1 (see Table 53 for dosing) was administered intravitreally, once daily for 1 week. FFA examinations were performed 3 days, 7 days, 14 days, and 28 days after administration of the modified peptides.

[2] = in vivo
[3] = tested on: IL-1β production by mouse peritoneal macrophages; assay: IL-1β production by mouse peritoneal macrophages (ELISA); format: cell-based; settings: 48 h
Summary of the method: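 Starch-elicited mouse peritoneal macrophages (2×10^6 cells/mL), adhered 3 h, treated with low, medium and high concentrations of mPEG-HM-1 for 48 h; dexamethasone as positive control. Supernatant IL-1β quantified by sandwich ELISA at OD450.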

[4] = tested on: retinal neovascular clusters in OIR C57/B16 mice; assay: Retinal blood vessels in OIR mice; format: in vivo, mouse; settings: for Neovascular clusters area: retina evaluated on day 17; for Inhibition rate: neovascular clusters area vs control, day 17
From the text: Establishment of the OIR model: Exposure of young mouse and their mothers to 75% hyperoxic environment from day 7 to day 12 after birth of C57/B16 mice caused rapid disappearance of capillaries in the central retina. Upon returning to the indoor air on the 12th day, the retinal blood vessels, upon exposing to hyperoxia, rapidly disappeared, causing extensive abnormal neovascularization, and the central portion of the retina remained largely avascular for a long time. After the blood vessels disappeared completely, on the 13th day, physiological saline (negative control group), mPEG-SC-HM-1, mPEG2-NHS-HM-1, mPEG-ALD10k-HM-1, and mPEG-bALD-HM-1, were administered by intravitreal injection and retinal vessels were evaluated on day 17 (to label unclosed vessels, […] of Texas Red-labeled tomato lectin was injected into the left ventricle and circulated for 5 min).

[5] = tested on: carrageenan-induced toe swelling in SD rats; assay: Carrageenan-induced acute toe swelling in rats; format: in vivo, rat; set-up: Swelling: unit not given here
Method: SD rats were divided into blank model group, dexamethasone-positive group (5 mg/kg) and mPEG-HM-1 test group. The drug was administered once a day, and the model group was given the same volume of normal saline for 3 days and fed normally. At the first hour after the last administration, 0.1 mL of 1% carrageenan was injected subcutaneously into the right hind paw of the rats to induce inflammation. The volume of the foot was measured at 1 h, 3 h, 5 h, and 7 h after inflammation. The degree of swelling of the foot was calculated according to the following formula: the degree of swelling of the foot (mL)=the volume of the foot after inflammation−the volume before inflammation. Record the number of milliliters of spilled liquid (method: use the ballpoint pen to circle as the measurement mark at the protruding point of the right joint, and then put the right hind foot of each mouse into the volume measuring device, so that the hind limb is exposed outside the cylinder, and the depth of the immersion was determined by coinciding the circle with the liquid surface. After the foot enters the liquid, the liquid level rises, and the volume of the overflow liquid is the volume of the right hind foot of the rat, and the normal volume of the right hind foot of each mouse is sequentially determined).

[6] = 20 mg/kg once a day for 3 days, 1 h after carrageenan
[7] = 20 mg/kg once a day for 3 days, 3 h after carrageenan
[8] = 20 mg/kg once a day for 3 days, 5 h after carrageenan
[9] = 20 mg/kg once a day for 3 days, 7 h after carrageenan

Substance: mPEG2-NHS40k-Arg-Gly-Ala-Asp-Arg-Ala-Gly-Gly-Gly-Gly-Arg-Gly-Asp ({mPEG2‑NHS 40 kDa}-RGADRAGGGGRGD) [mPEG2-NHS40k-HM-1]
- CNV Incidence rate ([1]; Day 3 after administration, 200 μg intravitreally once daily for 1 week (Table 53)): 51.02%
- leakage Spots # ([1]; Day 3 after administration, 200 μg intravitreally once daily for 1 week (Table 53), total spots 290-296 by table): 150
- CNV Incidence rate ([1]; Day 7, 200 μg intravitreally once daily for 1 week (Table 53)): 51.10%
- leakage Spots # ([1]; Day 7, 200 μg intravitreally once daily for 1 week (Table 53), total spots 182-188 by table): 93
- CNV Incidence rate ([1]; Day 14, 200 μg intravitreally once daily for 1 week (Table 53)): 44.53%
- leakage Spots # ([1]; Day 14, 200 μg intravitreally once daily for 1 week (Table 53), total spots 132-138 by table): 61
- CNV Incidence rate ([1]; Day 28, 200 μg intravitreally once daily for 1 week (Table 53)): 41.18%
- leakage Spots # ([1]; Day 28, 200 μg intravitreally once daily for 1 week (Table 53), total spots 67-71 by table): 28
- AUC0-∞ [2]: 4579.47 ± 13.52 mg/L/h
- CL [2]: 0.11 ± 0.0883 mL/min/kg
- MRT0-∞ [2]: 15.27 ± 9.37 h
- T1/2β (half-life) [2]: 42.25 ± 0.27 h
- IL-1β ([3]; 40 μg/mL): 756.84 ± 15.32 pg/mL
- Inhibition Rate of IL-1β production ([3]; 40 μg/mL): 18.28%
- IL-1β ([3]; 80 μg/mL): 673.30 ± 16.71 pg/mL
- Inhibition Rate of IL-1β production ([3]; 80 μg/mL): 27.30%
- IL-1β ([3]; 160 μg/mL): 568.00 ± 10.82 pg/mL
- Inhibition Rate of IL-1β production ([3]; 160 μg/mL): 38.67%
- Neovascular clusters area ([4]; 200 μg intravitreal injection on day 13): 0.120 ± 0.008 mm^2
- Inhibition rate ([4]; 200 μg intravitreal): 45.92%*
- Swelling ([5]; 80 mg/kg once a day for 3 days, 1 h after carrageenan): 0.26 ± 0.12
- Swelling ([5]; 80 mg/kg once a day for 3 days, 3 h after carrageenan): 0.32 ± 0.11
- Swelling ([5]; 80 mg/kg once a day for 3 days, 5 h after carrageenan): 0.42 ± 0.14
- Swelling ([5]; 80 mg/kg once a day for 3 days, 7 h after carrageenan): 0.35 ± 0.17
- Swelling ([5]; 160 mg/kg once a day for 3 days, 1 h after carrageenan): 0.27 ± 0.10
- Swelling ([5]; 160 mg/kg once a day for 3 days, 3 h after carrageenan): 0.35 ± 0.18
- Swelling ([5]; 160 mg/kg once a day for 3 days, 5 h after carrageenan): 0.41 ± 0.13
- Swelling ([5]; 160 mg/kg once a day for 3 days, 7 h after carrageenan): 0.34 ± 0.19

Substance: mPEG-ALD5k-Arg-Gly-Ala-Asp-Arg-Ala-Gly-Gly-Gly-Gly-Arg-Gly-Asp ({mPEG‑ALD 5 kDa}-RGADRAGGGGRGD) [mPEG-ALD5k-HM-1]
- CNV Incidence rate ([1]; Day 3 after administration, 25 μg intravitreally once daily for 1 week (Table 53)): 55.17%
- leakage Spots # ([1]; Day 3 after administration, 25 μg intravitreally once daily for 1 week (Table 53), total spots 290-296 by table): 160
- CNV Incidence rate ([1]; Day 7, 25 μg intravitreally once daily for 1 week (Table 53)): 52.75%
- leakage Spots # ([1]; Day 7, 25 μg intravitreally once daily for 1 week (Table 53), total spots 182-188 by table): 96
- CNV Incidence rate ([1]; Day 14, 25 μg intravitreally once daily for 1 week (Table 53)): 46.97%
- leakage Spots # ([1]; Day 14, 25 μg intravitreally once daily for 1 week (Table 53), total spots 132-138 by table): 62
- CNV Incidence rate ([1]; Day 28, 25 μg intravitreally once daily for 1 week (Table 53)): 46.48%
- leakage Spots # ([1]; Day 28, 25 μg intravitreally once daily for 1 week (Table 53), total spots 67-71 by table): 33
- AUC0-∞ [2]: 4986.29 ± 10.16 mg/L/h
- CL [2]: 0.843 ± 0.157 mL/min/kg
- MRT0-∞ [2]: 8.15 ± 4.21 h
- T1/2β (half-life) [2]: 9.13 ± 0.11 h
- IL-1β ([3]; 5 μg/mL): 734.73 ± 16.59 pg/mL
- Inhibition Rate of IL-1β production ([3]; 5 μg/mL): 19.87%
- IL-1β ([3]; 10 μg/mL): 654.50 ± 18.43 pg/mL
- Inhibition Rate of IL-1β production ([3]; 10 μg/mL): 28.62%
- IL-1β ([3]; 20 μg/mL): 516.13 ± 10.95 pg/mL
- Inhibition Rate of IL-1β production ([3]; 20 μg/mL): 43.71%
- Neovascular clusters area ([4]; 25 μg intravitreal injection on day 13): 0.108 ± 0.006 mm^2
- Inhibition rate ([4]; 25 μg intravitreal): 50.98%**
- Swelling ([5]; 10 mg/kg once a day for 3 days, 1 h after carrageenan): 0.22 ± 0.10
- Swelling ([5]; 10 mg/kg once a day for 3 days, 3 h after carrageenan): 0.35 ± 0.13
- Swelling ([5]; 10 mg/kg once a day for 3 days, 5 h after carrageenan): 0.41 ± 0.15
- Swelling ([5]; 10 mg/kg once a day for 3 days, 7 h after carrageenan): 0.31 ± 0.12
- Swelling [5, 6]: 0.21 ± 0.11
- Swelling [5, 7]: 0.34 ± 0.19
- Swelling [5, 8]: 0.37 ± 0.11
- Swelling [5, 9]: 0.35 ± 0.13

Substance: mPEG-ALD10k-Arg-Gly-Ala-Asp-Arg-Ala-Gly-Gly-Gly-Gly-Arg-Gly-Asp ({mPEG‑ALD 10 kDa}-RGADRAGGGGRGD) [mPEG-ALD10k-HM-1]
- incidence of CNV ([1]; BN rats, 28 days after administration, intravitreal once daily for 1 week): 39.44% and 39.13%
- CNV Incidence rate ([1]; Day 3 after administration, 50 μg intravitreally once daily for 1 week (Table 53)): 48.62%
- leakage Spots # ([1]; Day 3 after administration, 50 μg intravitreally once daily for 1 week (Table 53), total spots 290-296 by table): 141
- CNV Incidence rate ([1]; Day 7, 50 μg intravitreally once daily for 1 week (Table 53)): 46.15%
- leakage Spots # ([1]; Day 7, 50 μg intravitreally once daily for 1 week (Table 53), total spots 182-188 by table): 84
- CNV Incidence rate ([1]; Day 14, 50 μg intravitreally once daily for 1 week (Table 53)): 41.67%
- leakage Spots # ([1]; Day 14, 50 μg intravitreally once daily for 1 week (Table 53), total spots 132-138 by table): 55
- CNV Incidence rate ([1]; Day 28, 50 μg intravitreally once daily for 1 week (Table 53)): 39.44%
- leakage Spots # ([1]; Day 28, 50 μg intravitreally once daily for 1 week (Table 53), total spots 67-71 by table): 28
- AUC0-∞ [2]: 5067.98 ± 9.79 mg/L/h
- CL [2]: 0.425 ± 0.122 mL/min/kg
- MRT0-∞ [2]: 11.05 ± 7.68 h
- T1/2β (half-life) [2]: 16.46 ± 0.10 h
- IL-1β ([3]; 10 μg/mL): 724.09 ± 16.59 pg/mL
- Inhibition Rate of IL-1β production ([3]; 10 μg/mL): 21.03%
- IL-1β ([3]; 20 μg/mL): 620.94 ± 18.43 pg/mL
- Inhibition Rate of IL-1β production ([3]; 20 μg/mL): 32.28%
- IL-1β ([3]; 40 μg/mL): 455.16 ± 10.95 pg/mL
- Neovascular clusters area ([4]; 50 μg intravitreal injection on day 13): 0.085 ± 0.007 mm^2
- Inhibition rate ([4]; 50 μg intravitreal): 61.75%**
- inhibition rate of retinal neovascular clusters ([4]; OIR mice, 50 μg intravitreal injection, evaluated day 17): 61.75%
- Swelling [5, 6]: 0.24 ± 0.12
- Swelling [5, 7]: 0.36 ± 0.13
- Swelling [5, 8]: 0.42 ± 0.15
- Swelling [5, 9]: 0.32 ± 0.10
- Swelling ([5]; 40 mg/kg once a day for 3 days, 1 h after carrageenan): 0.21 ± 0.10
- Swelling ([5]; 40 mg/kg once a day for 3 days, 3 h after carrageenan): 0.31 ± 0.20
- Swelling ([5]; 40 mg/kg once a day for 3 days, 5 h after carrageenan): 0.36 ± 0.13
- Swelling ([5]; 40 mg/kg once a day for 3 days, 7 h after carrageenan): 0.33 ± 0.12
- inhibition of carrageenan-induced toe swelling (in words) ([5]; rats, 40 mg/kg, once a day for 3 days): most effective
